Consider four compounds from patent US10745352B2, “Dual function molecules for histone deacetylase inhibition and ataxia telangiectasia mutated activation and methods of use thereof” (Shuttle Pharmaceuticals, Inc., priority 2015, dated 2020).

For assay [1], the system named is ATM. As to the kind of experiment: ATM activation: phospho-ATM (S1981) ELISA on the nuclear fraction of MCF7 cells. The conditions noted are these: 1 μM, time course of 6 hours. In kind it is cell-based, Human. Here is the method:
Several assays were utilized to determine the ability of the compounds of the invention to activate ATM over a period of time. […] The fold change in phospho-ATM was measured over a period of time. Accordingly, the increase in phospho-ATM indicates activation of ATM by the compounds of the invention.
In certain examples, the activity of the compounds of the invention was compared to additional modulators of ATM, such as […] (a specific ATM inhibitor); dimethylsulfoxide (DMSO) (a solvent); 3,3′-diindolylmethane (DIM) (an ATM activator); and irradiation (irradiation may result in the generation of phospho-ATM due to DNA damage). DIM was not used as a comparative compound in Example 5.
Materials: MCF7 Cells; Complete RPMI media: RPMI, 10% Fetal Bovine Serum (FBS), 5% L-glutamine, 5% Pen/Strep; R&D Systems Human P-ATM (S1981) DuoSet IC ELISA Assay Kit; Plate sealers; Normal mouse serum (heat inactivated 56 C for 30 min); 96-well ELISA microtiter plate; 450 nm Plate Reader; 60 mm dishes; Disposable pipettes; Pipet-aid; Pipette tips; Micro-pipetter; Cell scraper; Distilled water; Pierce NE-PER Nuclear and Cytoplasmic Extraction Reagent; Pierce Protease and Phosphotase Inhibitor Mini Tablets; KU-55933; DIM (not used in Example 5); Dimethyl sulfoxide (DMSO); Phosphate buffered saline (PBS); and Sterile micro-tubes and conical tubes; Hemocytometer; Microscope; Micro-centrifuge.
MCF7 Cells were grown in Complete RPMI media and 10^6 cells were seeded into 60 mm dishes. Dishes were then divided into duplicate treatments the following day. Control samples were treated with 3 ml RPMI media for 1 hr. Vehicle samples were treated with 3 ml RPMI media plus 0.1% DMSO for 1 hr. Negative control samples were treated with 10 μM KU-55933 in 3 ml RPMI media plus 0.1% DMSO for 1 Hr. Positive control samples were treated with 0.5 μM DIM in 3 ml RPMI media plus 0.1% DMSO for 30 min. Test Samples were treated with 1 μM of the test compounds (e.g. N-(6-(hydroxyamino)-6-oxohexyl)-1H-indole-2-carboxamide in Example 5) in 3 ml RPMI media plus 0.1% DMSO for 30 min; 1 hr; 2 hrs; 4 hrs; and 6 hrs. At their designated time, samples were harvested on ice using a cell scraper and two washes of 1 ml PBS and kept as a cell pellet on dry ice until all were collected. After all samples were collected they were thawed on ice and separated into cytosolic and nuclear fractions using the Pierce NE-PER Nuclear and Cytoplasmic Extraction Reagent kit with added Pierce protease and phosphotase inhibitor tablet.
After recovery of the separate fractions, the process further included washing cells by suspending the cell pellet with PBS. 1-10×10^6 cells were transferred to a 1.5 mL microcentrifuge tube and a pellet was formed by centrifugation at 500×g for 2-3 minutes. […]
Background: ELISA stands for enzyme-linked immunosorbent assay.

For assay [2], the system named is pan-HDACs. Briefly: Pan-HDAC assay (Fluor-de-Lys fluorometric kit, HeLa Nuclear Extract). The conditions noted are these: values are average EC50, read-out: EC50 against pan-HDACs. The assay is classed as biochemical. The procedure:
Certain compounds of the invention were tested in a pan-HDAC assay to determine the ability of such compounds to inhibit HDAC protein. Specifically, the compounds tested included: N-(6-(hydroxyamino)-6-oxohexyl)-3-methyl-1H-indole-2-carboxamide (SP-1-161) (FIG. 8A); N^1-hydroxy-N^6-(2-(2-methyl-1H-indol-3-yl)ethyl)octanediamide (SP-1-163) (FIG. 8A); (S)—N-(6-(hydroxyamino)-6-oxohexyl)-1-tosylindoline-2-carboxamide (SP-1-169) (FIG. 8B); and (S)-1-((5-(dimethylamino)naphthalene-1-yl)sulfonyl)-N-(6-(hydroxyamino)-6-oxoheyl)indoline-carboxamide (SP-1-171) (FIG. 8B).
The Pan HDAC assay was performed as follows:
Materials: Enzo Fluor-de-Lys HDAC fluorometric activity assay kit; 360 nm excitation 460 nm emission Plate Reader; Disposable pipettes; Pipet-aid; Pipette tips; Micro-pipetter; DMSO; Sterile micro-tubes and conical tubes; and Micro-centrifuge.
Test compounds and control preparation: All test compounds' stock solutions were made in 100% DMSO. Test compound dilutions were made in HDAC Assay buffer with a final concentration of DMSO less than or equal to 1%. Vehicle control was HDAC Assay buffer with 1% DMSO.
The reagents for the assay were prepared as follows:
1. All kit components were defrosted and these, and all dilutions described below, were kept on ice until use. All undiluted kit components are stable for several hours on ice.
2. A sufficient amount of HeLa Nuclear Extract (BML-KI140) or other HDAC source diluted in Assay Buffer (BML-KI143) was prepared to provide for the assays that were performed (# of wells×15 μl). A 30-fold dilution of the HeLa Extract means that 15 μl contains 0.5 μl of the undiluted Extract, an appropriate amount to use per well.
3. Dilution(s) of Trichostatin A and/or Test Inhibitors were prepared in Assay Buffer (BML-KI143). Since 10 μl were used per well, and since the final volume of the HDAC reaction was 50 μl, these inhibitor dilutions were 5× their final concentration.
4. Dilution(s) of the Fluor de Lys® Substrate (BML-KI104; 50 mM) were prepared in Assay Buffer (BML-KI143) that were 2× the desired final concentration(s). For inhibitor screening, substrate concentrations at or below the Km are recommended. Twenty-five μL were used per well. Initial dilutions of 25-fold or greater in Assay Buffer (2.0 mM or less) yielded stable solutions (see NOTE on freezing and thawing below). Rapid mixing and dilution into room temperature buffer helped to prevent precipitation at high substrate concentration. NOTE: Freezing/thawing of Fluor de Lys® Substrate solutions in Assay Buffer may cause precipitation of the Substrate. Dilute only amount necessary for one day's experiment.
5. Shortly before use (<30 min.), sufficient Fluor de Lys® Developer was prepared for the assays to be performed (50 μl per well). […]

Regarding `Cc1[nH]c2ccccc2c1C` [2,3-dimethyl indole, reference compound], the “ATM activation (level of ATM phosphorylation, phospho-ATM)” value in assay [1] is “significant increase in ATM phosphorylation”; in assay [1] (listed as 2,3-dimethylindole), “significant increase in ATM activation”.
With `Cc1[nH]c2ccccc2c1CCNC(=O)CCCCCCC(=O)NO` [SP-1-163, N^1-hydroxy-N^6-(2-(2-methyl-1H-indol-3-yl)ethyl)octanediamide], the EC50 in assay [2] is 0.112 µM. Moreover, the “ATM activation (level of ATM phosphorylation, phospho-ATM)” value in assay [1] is “exemplary ATM activation activity”.
As for `Cc1ccc(S(=O)(=O)N2c3ccccc3C[C@H]2C(=O)NCCCCCC(=O)NO)cc1` [SP-1-169, (S)—N-(6-(hydroxyamino)-6-oxohexyl)-1-tosylindoline-2-carboxamide], in assay [2], the EC50 stood at 0.265 µM.
Regarding `CN(C)c1cccc2c(S(=O)(=O)N3c4ccccc4C[C@H]3C(=O)NCCCCCC(=O)NO)cccc12` [SP-1-171, (S)-1-((5-(dimethylamino)naphthalene-1-yl)sulfonyl)-N-(6-(hydroxyamino)-6-oxoheyl)indoline-carboxamide], the EC50 in assay [2] was determined as 0.0253 µM.

As a reminder, the EC50 is the concentration needed to bring the measured effect to its halfway point.
